Data published in patent publication US20110166191A1, “3-(2-amino-ethyl)-5-(3-cyclohexyl-propylidene)-thiazolidine-2,4-dione and its derivatives as multiple signaling pathway inhibitors and for the treatment of cancer” (priority 2010, published 2011).

Tests used:
phosphorylation of Akt = test: Western blot analysis of p-Akt in U937 cells; assay type: cell-based; conditions: PMA/TPA 200 nM stimulation
Experimental: FIG. 1. U937 cells were treated with Formula II prepared as described in Example 4 [i.e. 3-(2-aminoethyl)-5-(3-cyclohexylpropylidene)thiazolidine-2,4-dione] for 1 h, then stimulated with PMA (200 nM) for 30 min. Lysates were analyzed for p-Akt, p-MEK, p-ERK and α-tubulin by western blot analysis.
Cells (5×10^5 per ml) were treated with various concentrations of test compound at 37° C. (5% CO2) for 3 hrs, then stimulated with TPA at a final concentration of 200 nM for 20 min. Samples from whole-cell pellets were prepared and 30 μg protein for each condition was subjected to SDS-PAGE, transferred onto a PVDF membrane, and blocked with 5% fat-free milk for 30 min. The membrane is probed with primary antibodies overnight at 4° C. followed by incubation with horseradish peroxidase-labeled anti-mouse IgG (1:5000, BD Biosciecne). The immunoreactive bands are detected by chemiluminescence methods (Pierce) and visualized on Kodak Omat film. The following primary antibodies were used: phospho-p44/42 MAPK (ERK1/2, Thr202/Tyr204), p44/42 MAPK, phospho-p90RSK (Thr359/Ser363), RSK1/RSK2/RSK3 (Cell Signaling). Blots were reprobed with antibodies against α-tubulin to ensure equal loading and transfer of proteins.

U937 cells = test: Cell cycle analysis (PI flow cytometry); assay type: cell-based; conditions: 24 h
Experimental: FIG. 3. Effects of Formula II and Formula III on U937 cell cycle. Cells were treated with compounds prepared as described in Examples 4 and 8 [i.e. 3-(2-aminoethyl)-5-(3-cyclohexylpropylidene)thiazolidine-2,4-dione and 3-(2-aminoethyl)-5-(3-phenyl-propylidene)-thiazolidine-2,4-dione, respectfully] for 24 hrs, then cells were stained with PI and analyzed by flow cytometry.
After treatment of cells with test compound of varying concentrations for 24 hrs, cells were pelleted at 4° C., resuspended, fixed at 4° C. with 67% ethanol overnight, and treated on ice with a PI solution containing 3.8 mM Na citrate, 0.5 mg/mL RNase A (Sigma Chemical Co.), and 0.01 mg/mL PI (Sigma) for 3 hrs. Cell cycle analysis was performed by flow cytometry using Verity Winlist software (Topsham, Me.).

`NCCN1C(=O)S/C(=C\CCC2CCCCC2)C1=O` [Example 4, 3-(2-aminoethyl)-5-(3-cyclohexylpropylidene)thiazolidine-2,4-dione] was tested, and the “phosphorylation of Akt (p-Akt, western blot)” value (phosphorylation of Akt) was “dose dependently inhibited the phosphorylation of Akt” and the “effect on cell cycle” value (U937 cells) was “arrested U937 cells at G2/M phase”.
